What was measured:
[1] = target: T1, Fibroblast growth factor receptor 1 (Homo sapiens, UniProt P11362); experiment: Inhibition of N-terminal GST-tagged human recombinant FGFR1 (456 to 765) after 40 mins by mobility shift assay
[2] = target: T1, Fibroblast growth factor receptor 1; experiment: Binding affinity to N-terminal 6xHis-tagged human recombinant FGFR1 (458 to 765) by isothermal titration calorimetric analysis

T1 sequence (P11362 whole entry): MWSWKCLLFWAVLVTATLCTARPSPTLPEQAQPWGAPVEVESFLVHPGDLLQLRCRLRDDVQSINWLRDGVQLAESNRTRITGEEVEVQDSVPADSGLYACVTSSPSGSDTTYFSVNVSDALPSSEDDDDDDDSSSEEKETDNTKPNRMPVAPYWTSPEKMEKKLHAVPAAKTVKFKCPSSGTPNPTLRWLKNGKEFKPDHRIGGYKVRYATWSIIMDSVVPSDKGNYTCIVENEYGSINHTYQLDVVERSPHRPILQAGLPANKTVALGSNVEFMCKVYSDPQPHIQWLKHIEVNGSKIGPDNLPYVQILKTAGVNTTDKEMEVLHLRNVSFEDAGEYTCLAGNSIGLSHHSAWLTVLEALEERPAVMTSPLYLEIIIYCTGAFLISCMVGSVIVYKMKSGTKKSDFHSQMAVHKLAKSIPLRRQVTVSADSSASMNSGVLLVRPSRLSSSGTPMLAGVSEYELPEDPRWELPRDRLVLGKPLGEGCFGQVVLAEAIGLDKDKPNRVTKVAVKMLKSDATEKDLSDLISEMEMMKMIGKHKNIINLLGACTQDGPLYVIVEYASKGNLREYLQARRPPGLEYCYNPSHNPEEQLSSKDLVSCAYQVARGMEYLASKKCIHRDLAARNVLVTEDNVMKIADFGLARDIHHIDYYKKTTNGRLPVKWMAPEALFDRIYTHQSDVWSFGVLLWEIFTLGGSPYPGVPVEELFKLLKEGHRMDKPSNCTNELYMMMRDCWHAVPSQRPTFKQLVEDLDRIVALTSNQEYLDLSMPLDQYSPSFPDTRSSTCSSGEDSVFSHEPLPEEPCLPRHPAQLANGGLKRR

| Structure (SMILES) | IC50 ([1]; read-out: IC50) | Kd [2] | IC50 ([1]; read-out: pIC50 (converted)) |
| --- | --- | --- | --- |
| COc1cc(CCc2cc(Nc3ccnc(NCc4cc(C)no4)n3)n[nH]2)cc(OC)c1 | 60 nM | 5.8 nM | – |
| COc1ccc(CCc2cc(Nc3ccnc(NCc4cc(C)no4)n3)n[nH]2)cc1OC | 20000 nM | 447 nM | 100 nM |

Source: ChEMBL document CHEMBL3108753, “FGFR1 Kinase Inhibitors: Close Regioisomers Adopt Divergent Binding Modes and Display Distinct Biophysical Signatures” (ACS Med Chem Lett, 2014)
